Values quoted from earlier work as cited in patent publication US11260023B2, “Topical compositions containing rofecoxib and methods of making and using the same” (BRIORI BIOTECH, LLC, priority 2020, dated 2022).

Tests used:
[1] = of the solvent; cited from earlier work
[2] = after 24 hours after 25 hours; cited from earlier work

SMILES	logP [1]	Δd (dispersion) [1] [MPa^1/2]	Δh (hydrogen bonding) [1] [MPa^1/2]	Δp (polar) [1] [MPa^1/2]	amount of diclofenac that penetrates into the blood [2] [mg]
CC(O)CC(C)(C)O (centres unmarked) [2-Methyl-pentane-2,4-diol, 2-methylpentane-2,4-diol]	0.3	16.4	20.6	8	
CC(C)=O [Acetone, acetone]	−0.1	15.5	7	10.4	
OCc1ccccc1 [Benzyl Alcohol, benzyl alcohol]		18.4	13.7	6.3	
CCOC(=O)CCCCCCCCC(=O)OCC [Diethyl Sebacate, diethyl sebacate]	3.5	16	4.7	4	
CCOCCOCCO [Diethylene Glycol Monoethyl Ether, diethylene glycol monoethyl ether]	−0.5	16.2	14.3	9.2	
CC(C)OC(=O)CCCCC(=O)OC(C)C [Diisopropyl Adipate, diisopropyl adipate]	2.2				
CO[C@H]1CO[C@H]2[C@@H]1OC[C@H]2OC [Dimethyl Isosorbide, isosorbide dimethyl ether]	−0.6	17.6	7.5	7.1	
C[S+](C)[O-] [Dimethyl Sulfoxide, dimethyl sulfoxide]	−0.6	18.4	10.2	16.4	
CCOC(C)=O [Ethyl Acetate, ethyl acetate]	0.76	15.8	7.2	5.3	
CCCCCCCCCCCCCC(=O)OC(C)C [Isopropyl tetradecanoate, isopropyl tetradecanoate]		16.2	3.7	2.4	
CN1CCCC1=O [N-Methyl-2-Pyrrolidone, N-methyl-2-pyrrolidone]	0.5	18	7.2	12.3	
CC1COC(=O)O1 (centres unmarked) [Propylene Carbonate, propylene carbonate]	−0.4	20	4.1	18	
CC(=O)OCC(C)OC(C)=O (centres unmarked) [Propylene Glycol Diacetate, propylene glycol diacetate]	0.7				
CC(O)CO (centres unmarked) [Propylene Glycol, MP, propylene glycol]	−0.9	16.8	23.3	9.4	
CC1=CCC(C(C)(C)O)CC1 (stereo not drawn) [alpha-Terpineol 95.0+ %, alpha-terpineol]	1.8	17.1	7.6	3.6	
O=C(O)Cc1ccccc1Nc1c(Cl)cccc1Cl [diclofenac]					0.067
